Experimental data taken from ChEMBL document CHEMBL1201862, “PubChem BioAssay data set” (2004).
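In this assay, cells in 96-well plates receive the compound at five concentrations for 48 hours. Endpoints are linearly interpolated between the surrounding concentrations. Abbreviation: GI50, concentration required for 50% inhibition of growth.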 Calls of active or inactive are those of the source. No stated cut-off is given here; in the data, active = GI50 up to about 1.1 µM and inactive = higher.

Key:
Assay in all cases: NCI tumour cell line growth inhibition, 48 h
786-0 = tested on: 786-0
ACHN = tested on: ACHN
K562 = tested on: K562
KM12 = tested on: KM12
LOX IMVI = tested on: LOX IMVI
NCI-H23 = tested on: NCI-H23
OVCAR-3 = tested on: OVCAR-3
OVCAR-4 = tested on: OVCAR-4
OVCAR-5 = tested on: OVCAR-5
OVCAR-8 = tested on: OVCAR-8
SF-268 = tested on: SF-268
SK-MEL-5 = tested on: SK-MEL-5
SR = tested on: SR
UO-31 = tested on: UO-31
SK-OV-3 = tested on: SK-OV-3
A498 = tested on: A498

| SMILES | GI50 (786-0) | GI50 (ACHN) | GI50 (K562) | GI50 (KM12) | GI50 (LOX IMVI) | GI50 (NCI-H23) | GI50 (OVCAR-3) | GI50 (OVCAR-4) | GI50 (OVCAR-5) | GI50 (OVCAR-8) | GI50 (SF-268) | GI50 (SK-MEL-5) | GI50 (SR) | GI50 (UO-31) | GI50 (SK-OV-3) | GI50 (A498) |
| --- | --- | --- | --- | --- | --- | --- | --- | --- | --- | --- | --- | --- | --- | --- | --- | --- |
| CCOC(=O)/C(C#N)=C1\N[C@H](C(=O)OCC)CO1 | > 100 µM (inactive) | > 100 µM (inactive) | > 100 µM (inactive) | > 100 µM (inactive) | > 100 µM (inactive) | > 100 µM (inactive) | > 100 µM (inactive) | > 100 µM (inactive) | > 100 µM (inactive) | > 100 µM (inactive) | > 100 µM (inactive) | > 100 µM (inactive) | > 100 µM (inactive) | > 100 µM (inactive) |  |  |
| Cc1nn2c(nc1=O)sc1ccc3ccccc3c12 | > 100 µM (inactive) | > 100 µM (inactive) | > 100 µM (inactive) | > 100 µM (inactive) | > 100 µM (inactive) | > 100 µM (inactive) | > 100 µM (inactive) | > 100 µM (inactive) | > 100 µM (inactive) | > 100 µM (inactive) | > 100 µM (inactive) | > 100 µM (inactive) | > 100 µM (inactive) | > 100 µM (inactive) | > 100 µM (inactive) |  |
| O=CCCCC(Sc1ccccc1)Sc1ccccc1 | 19.1 µM (inactive) | 16.3 µM (inactive) | 14.4 µM (inactive) | 33 µM (inactive) | 13.7 µM (inactive) | 11.5 µM (inactive) | 26.2 µM (inactive) | 21.7 µM (inactive) |  | 17.4 µM (inactive) | 18.4 µM (inactive) | 15.8 µM (inactive) | 15.6 µM (inactive) | 14.7 µM (inactive) | 18.7 µM (inactive) | 38.8 µM (inactive) |
| CCOC(=O)/N=c1\ss/c(=N\C(=S)N(C)C)n1-c1ccccc1 | 14.6 µM (inactive) | 52.1 µM (inactive) | 19 µM (inactive) | 8.63 µM (inactive) | > 100 µM (inactive) | 67.5 µM (inactive) | 0.394 µM (active) | 2.16 µM (inactive) | > 100 µM (inactive) | > 10 µM (inactive) | 2.06 µM (inactive) | 2.62 µM (inactive) | 3.72 µM (inactive) | > 10 µM (inactive) | > 10 µM (inactive) | 4.42 µM (inactive) |
| CN(C)C(=N/O)/C(=N\O)N(C)C | > 100 µM (inactive) | > 100 µM (inactive) | > 100 µM (inactive) | > 100 µM (inactive) | > 100 µM (inactive) | > 100 µM (inactive) |  | > 100 µM (inactive) | > 100 µM (inactive) | > 100 µM (inactive) | > 100 µM (inactive) |  | > 100 µM (inactive) | > 100 µM (inactive) | > 100 µM (inactive) | > 100 µM (inactive) |
| c1cc(-c2cn[nH]c2)cc(-c2cn[nH]c2)c1 | 37.3 µM (inactive) |  | 43 µM (inactive) | 41 µM (inactive) | 36.8 µM (inactive) | 47 µM (inactive) | 33.5 µM (inactive) | 54 µM (inactive) |  | 36.9 µM (inactive) | 25.8 µM (inactive) | 32.6 µM (inactive) | 31.8 µM (inactive) | 16 µM (inactive) | 8.55 µM (inactive) | 25.3 µM (inactive) |
| CCN(CC)c1ccc(C(=C2C=CC(=[N+](CC)CC)C=C2)c2ccccc2)cc1 | 0.0352 µM (active) | 0.0313 µM (active) | 0.0213 µM (active) | 0.0324 µM (active) | 0.0219 µM (active) | 0.0283 µM (active) |  | 0.0353 µM (active) | 0.134 µM (active) |  | 0.0366 µM (active) | 0.0166 µM (active) | 0.0224 µM (active) | 0.0366 µM (active) | 0.0304 µM (active) |  |
| O=P(c1ccccc1)(c1ccccc1)C1CC=C2CCCCCC2C1 (stereo not drawn) | 22.6 µM (inactive) |  | 28.3 µM (inactive) | 38.5 µM (inactive) | 26.1 µM (inactive) | 30.2 µM (inactive) | 23.8 µM (inactive) | 26.2 µM (inactive) | 23.2 µM (inactive) | 31 µM (inactive) | 23.3 µM (inactive) | 19.2 µM (inactive) |  | 21.8 µM (inactive) | 36.9 µM (inactive) | 35.9 µM (inactive) |
| O=C1/C(=C/c2ccccc2Cl)COc2ccccc21 | 15.2 µM (inactive) | 19.1 µM (inactive) | 3.93 µM (inactive) | 10.8 µM (inactive) | 15.3 µM (inactive) | 19.1 µM (inactive) | 18.2 µM (inactive) |  | 17.8 µM (inactive) | 17.2 µM (inactive) | 17.5 µM (inactive) |  |  | 15.1 µM (inactive) | 32.6 µM (inactive) | 16.6 µM (inactive) |
| COC(=O)C(=O)C(C#N)c1ccc(CC#N)cc1 (stereo not drawn) | > 100 µM (inactive) | > 100 µM (inactive) | > 100 µM (inactive) | > 100 µM (inactive) | > 100 µM (inactive) | > 100 µM (inactive) | > 100 µM (inactive) |  |  |  | > 100 µM (inactive) |  | > 100 µM (inactive) | > 100 µM (inactive) | > 100 µM (inactive) |  |
| O=C[C@]12CC=C3OC4OC5(CCCCC5)OC4[C@H]3[C@H]1C(=O)C=CC2=O (stereo partly drawn) | 9.84 µM (inactive) | 18.2 µM (inactive) | > 10 µM (inactive) | 29.4 µM (inactive) |  | > 10 µM (inactive) |  | 16.7 µM (inactive) | 53.3 µM (inactive) | 17.6 µM (inactive) | 8.71 µM (inactive) | 17.7 µM (inactive) | 2.52 µM (inactive) | 12.1 µM (inactive) | 45.8 µM (inactive) | > 100 µM (inactive) |
| O=c1c2cc(Br)ccc2[nH]c(=S)n1-c1ccc(Br)cc1 | 40.6 µM (inactive) | > 100 µM (inactive) | > 100 µM (inactive) | > 100 µM (inactive) | 70.6 µM (inactive) | > 100 µM (inactive) | 52.4 µM (inactive) | 76.4 µM (inactive) |  | 31 µM (inactive) | > 100 µM (inactive) |  | > 100 µM (inactive) | > 100 µM (inactive) |  | > 100 µM (inactive) |
| COc1ccc(/C=N/N=C(\N)NO)cc1F | 13.7 µM (inactive) | 10.1 µM (inactive) | 8 µM (inactive) | 29.4 µM (inactive) | 10.4 µM (inactive) | 29.9 µM (inactive) | 53 µM (inactive) | 7.45 µM (inactive) | 13.9 µM (inactive) | 25.9 µM (inactive) | 17.1 µM (inactive) | 5.02 µM (inactive) | 15.9 µM (inactive) | 14 µM (inactive) | 24.5 µM (inactive) |  |
| CCCC/C=C/C=C/C=C/CCCCCCCC(=O)OCC(COC(=O)CCCCCCC/C=C/C1C=CC(CCCC)C(C(=O)O)C1C(=O)O)OC(=O)CCCCCCC/C=C/C=C/C=C/CCCC.OCCNCO (stereo not drawn) | 13.7 µM (inactive) | 19 µM (inactive) | 19.5 µM (inactive) | 18.7 µM (inactive) | 13.2 µM (inactive) | 19.4 µM (inactive) | 17.9 µM (inactive) | 17 µM (inactive) | 20.2 µM (inactive) | 19.6 µM (inactive) | 17.5 µM (inactive) | 17.4 µM (inactive) |  | 20 µM (inactive) | 23.7 µM (inactive) | 15.3 µM (inactive) |
| O=[N+]([O-])c1cccc(C2=NN(c3ccccc3)C[N+](c3ccc(Br)cc3)=N2)c1 | > 100 µM (inactive) | 93.5 µM (inactive) | 50.2 µM (inactive) | 73.5 µM (inactive) |  | > 100 µM (inactive) |  | > 100 µM (inactive) | > 100 µM (inactive) | > 100 µM (inactive) | > 100 µM (inactive) | > 100 µM (inactive) | < 0.01 µM (active) | 96.4 µM (inactive) | > 100 µM (inactive) | > 100 µM (inactive) |
| O=c1c2cc3ccccc3n2c(=O)c2cc3ccccc3n12 | > 100 µM (inactive) | > 100 µM (inactive) | > 100 µM (inactive) | 89.5 µM (inactive) | > 100 µM (inactive) | > 100 µM (inactive) | > 100 µM (inactive) | > 100 µM (inactive) | > 100 µM (inactive) | > 100 µM (inactive) | > 100 µM (inactive) | > 100 µM (inactive) | > 100 µM (inactive) | > 100 µM (inactive) |  | > 100 µM (inactive) |
| O=C(CC1=Nc2nnc(-c3nnc4n3C(=O)C(CC(=O)c3cccnc3)=N4)n2C1=O)c1cccnc1 | > 100 µM (inactive) | > 100 µM (inactive) | > 100 µM (inactive) | > 100 µM (inactive) | > 100 µM (inactive) | > 100 µM (inactive) | > 100 µM (inactive) | > 100 µM (inactive) | > 100 µM (inactive) |  | > 100 µM (inactive) | > 100 µM (inactive) |  | > 100 µM (inactive) | > 100 µM (inactive) | > 100 µM (inactive) |
| CS(=O)(=O)N(CCC#N)c1ccc(/C=C2\N=C(c3ccccc3Cl)OC2=O)cc1 | > 100 µM (inactive) | > 100 µM (inactive) | > 100 µM (inactive) | > 100 µM (inactive) | > 100 µM (inactive) | > 100 µM (inactive) | > 100 µM (inactive) |  | > 100 µM (inactive) | > 100 µM (inactive) | > 100 µM (inactive) | > 100 µM (inactive) |  | > 100 µM (inactive) | > 100 µM (inactive) | > 100 µM (inactive) |
| CCOC(=O)/C(=C/c1ccc(Cl)cc1)N(CC)CC | > 100 µM (inactive) | > 100 µM (inactive) | > 100 µM (inactive) | > 100 µM (inactive) | > 100 µM (inactive) | > 100 µM (inactive) |  | > 100 µM (inactive) | > 100 µM (inactive) | > 100 µM (inactive) | > 100 µM (inactive) | > 100 µM (inactive) | > 100 µM (inactive) | > 100 µM (inactive) | > 100 µM (inactive) | > 100 µM (inactive) |
